Data: PMC7006637, “Design, synthesis and α-glucosidase inhibition study of novel embelin derivatives” (Journal of Enzyme Inhibition and Medicinal Chemistry, 2020)
pIC50, pKi: −log10 of the molar value.

How the values were obtained:
Format in all cases: biochemical, Saccharomyces cerevisiae
α-glucosidase [1] = assay: α-glucosidase inhibition assay (PNPG substrate, OD 405 nm); conditions: for Inhibition rate: compound at 250 μM, 0.07 U/ml enzyme, 0.5 mM PNPG, pH 6.8, 37 °C; for pIC50: more than eight concentrations, GraphPad Prism 7.0; for α-glucosidase inhibitory activity (in words): SAR discussion
Experimental: The α-glucosidase inhibitory activity was determined on a Thermo Scientific Multiskan GO Microplate Reader. All compounds were dissolved in DMSO. p-Nitrophenol glucoside (PNPG) as a substrate and α-glucosidase (from Saccharomyces cerevisiae) were used for the bioassay. First, 0.7 U/ml α-glucosidase solution and 1 mmol/L PNPG solution in 0.1 M PBS (pH 6.8) were prepared. Next, 35 µl of 0.1 M PBS (pH 6.8), 10 µl of 0.7 U/ml α-glucosidase solution (final concentration: 0.07 U/ml), and 5 µl of sample solution were added to the 96-well plate. The mixture was pre-incubated for 10 min at 37 °C. Then, 50 µl of 1 mM PNPG (final concentration: 0.5 mM) was rapidly added to initiate the reaction. Then the 96-well plate was quickly transferred into the microplate reader, incubated at 37 °C for 30 min (1 min shake + 9 min incubation, repeated 3 times). After that, 50 µl of 1 M of Na2CO3 solution was added to each well to stop the reaction. The 96-well plate was quickly transferred into the microplate reader and shaken for 30 s. In the blank reference group, 5 µl DMSO replaced the sample solution, other operations were the same. The OD value was measured at 405 nm. The inhibition rate was calculated by Equation (1). (1) Inhibition rate (%) = [(A0−A1)/A0] × 100 where A0 is the OD of the control, and A1 is the OD of the sample. […] The IC50 values were calculated by GraphPad Prism 7.0 software.

α-glucosidase [2] = assay: Inhibition mechanism: enzyme activity versus enzyme concentration plots; conditions: constant PNPG 1 mM; α-glucosidase 0.00-1.05 U/ml
Experimental: The inhibition mechanism of 10d, 12d, and 15d was determined by the following method: A series of diluted inhibitor solutions was prepared, at constant PNPG concentration (1 mM). The inhibition rates were measured by the above method with different concentrations of α-glucosidase (0.00, 0.35, 0.7, and 1.05 U/ml). […] Because the chemical structures of compounds 9d and 10d are very similar, compound 10d was selected as a representative in the next mechanism studies. The inhibition mechanism of the selected compounds 10d, 12d, 15d, and embelin on α-glucosidase was investigated using PNPG as the substrate. The relationship between enzyme activity and concentration in the presence of different concentrations of selected compounds was studied. […] Therefore, the inhibition of compounds 10d, 12d, 15d, and embelin against α-glucosidase is reversible.

α-glucosidase [3] = assay: Enzyme kinetic study, Lineweaver–Burk double-reciprocal plots; conditions: for Inhibition type: Lineweaver–Burk plots, PNPG 0.2-1 mM, enzyme 0.7 U/ml; for pKi: from plot of slope (Km/Vm) versus inhibitor concentration, PNPG substrate, read-out: Ki value (inhibitor binding with free enzyme)
Experimental: The inhibition type of the enzyme was assayed by Lineweaver–Burk plots. A series of diluted inhibitor solutions was prepared, at constant α-glucosidase concentration (0.7 U/ml). The inhibition rates were measured by the above method with different concentrations of PNPG (1, 0.5, 0.4, 0.3, 0.25, and 0.2 mM). […] The kinetic data were expressed by Lineweaver–Burk double-reciprocal plots. […] Thus, these compounds bind not only with the free α-glucosidase but also with the α-glucosidase-PNPG complex. In other words, they inhibit the function of α-glucosidase by not only directly binding to free enzyme (EI), but also by interfering with the formation of the α-glucosidase-PNPG (ES) intermediate through producing an α-glucosidase-PNPG-inhibitor (ESI) complex in a non-competitive manner. The inhibition constant for the inhibitor binding with free enzyme (Ki) was determined from a plot of the slope (Km/Vm) versus the inhibitor concentration (Figure 6(A2–D2)), and the inhibition constant for the inhibitor binding with enzyme–substrate complex (Kis) was obtained from the vertical intercept (1/Vm) versus the inhibitor concentration (Figure 6(A3–D3))[34]. The results are collected in Table 3: the Kis values of all of them are smaller than their Ki values, which mean that they have higher affinity with the enzyme-substrate complex than with the free enzyme.

SMILES	Inhibition rate (α-glucosidase [1]) [%]	other results
CCCCCCCCCCCC1=C(O)C(=O)C=C(OC)C1=O [Compound 8b]	12.0	
CCCCCCCCCC1=C(OC)C(=O)C=C(OC)C1=O [Compound 7a]	13.5	
CCCC1=C(OC)C(OC)=CC(=O)C1=O [Compound 4c]	14.9	
CCCCCC1=C(O)C(=O)C=C(OC)C1=O [Compound 5b]	14.9	
COC1=CC(=O)C(=O)C(Cc2ccc(-c3ccccc3)cc2)=C1OC [Compound 17c]	59.7	
COCCCC1=C(O)C(=O)C=C(OC)C1=O [Compound 13b]	0	
COC1=CC(=O)C(OC)=C(CCC(C)C)C1=O [Compound 11a]	1.5	
COC1=CC(=O)C(=O)C(Cc2ccc3ccccc3c2)=C1OC [Compound 16c]	37.2	
CCCCCCCCCCCCCCCC1=C(O)C(=O)C=C(O)C1=O [Compound 10d]	100	pIC50 (α-glucosidase [1]): 5.74; Inhibition mechanism (reversibility) (α-glucosidase [2]): reversible; Inhibition type (α-glucosidase [3]): Mixed-type; pKi (α-glucosidase [3]): 5.91
O=C1C=C(O)C(=O)C(Cc2ccc(-c3ccccc3)cc2)=C1O [Compound 17d]	99.5	pIC50 (α-glucosidase [1]): 4.95
COCCCC1=C(O)C(=O)C=C(O)C1=O [Compound 13d]	0	
CCCCCCCCCC1=C(OC)C(OC)=CC(=O)C1=O [Compound 7c]	33.2	
COCCCC1=C(OC)C(=O)C=C(OC)C1=O [Compound 13a]	0	
CCCCCCCC1=C(OC)C(OC)=CC(=O)C1=O [Compound 6c]	16.1	
O=C1C=C(O)C(=O)C(CCC2CCCCC2)=C1O [Compound 14d]	85.2	pIC50 (α-glucosidase [1]): 4.34
O=C1C=C(O)C(=O)C(CCCCCCCc2ccccc2)=C1O [Compound 15d]	100	pIC50 (α-glucosidase [1]): 5.44; Inhibition mechanism (reversibility) (α-glucosidase [2]): reversible; Inhibition type (α-glucosidase [3]): Mixed-type; pKi (α-glucosidase [3]): 5.62
CCCCCC1=C(OC)C(=O)C=C(OC)C1=O [Compound 5a]	11.5	
CCCCCCCC1=C(O)C(=O)C=C(OC)C1=O [Compound 6b]	5.4	
COC1=CC(=O)C(O)=C(Cc2ccc3ccccc3c2)C1=O [Compound 16b]	4.3	
CC(C)CCCC(C)CCC1=C(O)C(=O)C=C(O)C1=O (centres unmarked) [Compound 12d]	100	pIC50 (α-glucosidase [1]): 5.48; Inhibition mechanism (reversibility) (α-glucosidase [2]): reversible; Inhibition type (α-glucosidase [3]): Mixed-type; pKi (α-glucosidase [3]): 5.43
CC(C)CCC1=C(O)C(=O)C=C(O)C1=O [Compound 11d]	37.6	
CCCC1=C(OC)C(=O)C=C(OC)C1=O [Compound 4a]	9.0	

SMILES	Inhibition rate (α-glucosidase [1]) [%]	other results
CCCCCCCCCCCC1=C(OC)C(OC)=CC(=O)C1=O [Compound 8c]	0.6	
CCCCCCCCCCCCCC1=C(O)C(=O)C=C(O)C1=O [Compound 9d]	100	pIC50 (α-glucosidase [1]): 5.64
COC1=CC(=O)C(O)=C(CCC2CCCCC2)C1=O [Compound 14b]	71.1	
CCCC1=C(O)C(=O)C=C(O)C1=O [Compound 4d]	18.1	α-glucosidase inhibitory activity (in words) (α-glucosidase [1]): very low inhibitory effect
O=C1C=C(O)C(=O)C(Cc2ccc3ccccc3c2)=C1O [Compound 16d]	81.4	pIC50 (α-glucosidase [1]): 4.13
CCCCCCCCCC1=C(O)C(=O)C=C(O)C1=O [Compound 7d]	99.4	pIC50 (α-glucosidase [1]): 5.24
CCCCCCCC1=C(OC)C(=O)C=C(OC)C1=O [Compound 6a]	1.5	
CCCCCCCCCCCC1=C(OC)C(=O)C=C(OC)C1=O [Compound 8a]	12.5	
CCCCCCCCCC1=C(O)C(=O)C=C(OC)C1=O [Compound 7b]	20.9	
CCCCCCCC1=C(O)C(=O)C=C(O)C1=O [Compound 6d]	80.8	pIC50 (α-glucosidase [1]): 3.90
COC1=CC(=O)C(OC)=C(Cc2ccc(-c3ccccc3)cc2)C1=O [Compound 17a]	5.1	
COC1=CC(=O)C(O)=C(CCC(C)C)C1=O [Compound 11b]	2.6	
COCCCC1=C(OC)C(OC)=CC(=O)C1=O [Compound 13c]	0	
COC1=CC(=O)C(OC)=C(Cc2ccc3ccccc3c2)C1=O [Compound 16a]	6.0	
CCCCCCCCCCCC1=C(O)C(=O)C=C(O)C1=O [Embelin, 2,5-dihydroxy-3-undecyl-1,4-benzoquinone]	100	pIC50 (α-glucosidase [1]): 5.38; Inhibition mechanism (reversibility) (α-glucosidase [2]): reversible; Inhibition type (α-glucosidase [3]): Mixed-type; pKi (α-glucosidase [3]): 5.43
COC1=CC(=O)C(O)=C(Cc2ccc(-c3ccccc3)cc2)C1=O [Compound 17b]	14.3	
CCCCCC1=C(OC)C(OC)=CC(=O)C1=O [Compound 5c]	16.4	
COC1=CC(=O)C(OC)=C(CCC2CCCCC2)C1=O [Compound 14a]	70.1	
CCCC1=C(O)C(=O)C=C(OC)C1=O [Compound 4b]	10.4	
CCCCCC1=C(O)C(=O)C=C(O)C1=O [Compound 5d]	19.0	α-glucosidase inhibitory activity (in words) (α-glucosidase [1]): very low inhibitory effect
COC1=CC(=O)C(=O)C(CCC2CCCCC2)=C1OC [Compound 14c]	74.7	
COC1=CC(=O)C(=O)C(CCC(C)C)=C1OC [Compound 11c]	3.3	
